“Also recorded” adds a separate entry of the source. Numbered stars: 1 amine (or outer) side, 2 acyl side, 3 side chain; on linkers, the order of the positions; unused ones are H or OH. Bridge positions count the residues as written; N and C are the ends. Square brackets hold non-standard residues; d marks the D form. I, II: the chains in the order shown. X2 = O=C(CCOCCOCCOCCN(CCOCCOCCOCCn1cc(CCC(=O)[*:2])nn1)CCOCCOCCOCCn1cc(CCC(=O)[*:3])nn1)[*:1]; TATA = O=C(CC[*:1])N1CN(C(=O)CC[*:2])CN(C(=O)CC[*:3])C1; X1 = CC(C)[C@H](N[*:1])C(=O)C[C@@H](CC(N)=O)C(=O)[*:2]; X3 = O=C(CC[*:1])N1CN(C(=O)CC[*:3])CN(C(=O)C[*:2])C1; d1Nal = N[C@H](Cc1cccc2ccccc12)C(=O)O; Hyp = O=C(O)[C@@H]1C[C@@H](O)CN1; hArg = N=C(N)NCCCC[C@H](N)C(=O)O; tBuAla = CC(C)(C)C[C@H](N)C(=O)O; Nle = CCCC[C@H](N)C(=O)O
Experiments:
CD137 [1] = target: T1, CD137 (Homo sapiens, UniProt Q07011); test: IL-2 and IFN-γ cytokine secretion; assay type: cell-based
[2] = tested on: MC38 #13 cells (MC38 cells engineered to overexpress Nectin-4); test: efficacy study BT7480 with anti-PD-1 and anti-Ctla-4, MC38 #13 tumor growth and survival; assay type: in vivo, C57BL/6J-huCD137 mice; conditions: i.p. BIW for 2 weeks, 1 mg/kg BT7480, 5 mg/kg antibodies, by day 33
Description: For tumor growth analysis, 6-8 week old female C57BL/6J-huCD137− mice (Biocytogen) were implanted subcutaneously with 1×10+e6 MC38 #13 cells (MC38 cells engineered to overexpress Nectin-4). Mice were randomized into treatment groups when average tumor volumes reached around 100 mm^3 and were treated intraperitoneally with vehicle (25 mM histidine, 10% sucrose, pH7), 1 mg/kg BT7480, 5 mg/kg anti-PD-1 (RMP 1-14), 5 mg/kg anti-Ctla-4 (9H10) or BT7480/anti-PD-1 and BT7480/anti-Ctla-4 combinations. Treatments were given twice weekly (BIW) for 2 weeks, and tumor growth was monitored by caliper measurements until day 33 after treatment initiation. Animals with >2000 mm^3 tumors were sacrificed as they had reached the Humane Endpoint.

[3] = tested on: MC38 #13 (MC38 cells engineered to express Nectin-4) tumor tissue; test: transcriptional (Nanostring) analysis of MC38 #13 tumors, study with BT7480; assay type: in vivo, huCD137-C57B/6J mice; conditions: 5 mg/kg i.v. 0 h, 24 h
Description: For the transcriptional and immunohistochemical (IHC) analyses, 6-8 week old female huCD137-C57B/6J mice (Biocytogen) mice were implanted subcutaneously with 1×10^6 MC38 #13 (MC38 cells engineered to express Nectin-4) cells. Mice were randomized into treatment groups when average tumor volumes reached around 255 mm^3 to receive vehicle, BT7480 (BCY00011863), non-binder BCY control BCY00012797 (BCY12797) or αCD137 antibody (urelumab analogue). BT7480 and its non-binding control were dosed intravenously at 5 mg/kg (in 25 mM histidine HCl, 10% sucrose, pH7; Vehicle) at 0 h and 24 h and urelumab analogue was dosed intraperitoneally at 2 mg/kg in PBS BIW (0 h, 72 h) dose and schedule. Tumors from BT7480-treated mice were harvested at 24 h (after the 0 h dose), 48 h (24 h after the last of 0 h and 24 h dose), 96 h (72 h after the last of 0 h and 24 h dose) and 144 h (120 h after the last of 0 h and 24 h dose). Tumors from αCD137-treated mice were harvested at 144 h after treatment initiation. Tumors from vehicle treated mice were harvested 24 h after the 0 h dose and at 144 h (120 h after the last of 0 h and 24 h dose). RNA was isolated from tumor tissues using RNAeasy kit (Qiagen) and transcriptional analysis was performed using nCounter Mouse PanCancer IO 360 panel (Nanostring) from 100 ng RNA/tumor. Data were analyzed using the nSolver Analysis Software with advanced analysis probe set ns_mm_io_360_v1.0 (Nanostring).

CD137 [4] = target: T1, CD137; test: CD137 activation; assay type: cell-based
MC38 tumor tissue [5] = test: transcriptional (Nanostring) profiling of MC38 tumors, study with BT7455; assay type: in vivo, huCD137-C57B/6J mice
Description: For the transcriptional profiling analyses of the effects of BT7455 in the immune tumor microenvironment, 6-8 week old female huCD137-C57B/6J mice (Biocytogen) mice were implanted subcutaneously with 1×10+E6 MC38 cells. Mice were randomized into treatment groups when average tumor volumes reached around 350 mm^3 to receive vehicle, BT7455, αCD137 antibody (urelumab analogue) or αPD-1 antibody. BT7455 was dosed intravenously at 8 mg/kg (in 25 mM histidine HCl, 10% sucrose, pH7; Vehicle) at 0 h and 24 h and urelumab analogue and αPD-1 antibody were dosed intraperitoneally at 2 mg/kg (urelumab analogue) or 10 mg/kg (αPD-1 antibody) in PBS at 0 h. Tumors from vehicle, BT7455, urelumab analogue and αPD-1 antibody-treated mice were harvested at 24 h, 48 h and 144 h after treatment initiation. RNA was isolated from tumor tissues using RNAeasy kit (Qiagen) and transcriptional analysis was performed using nCounter Mouse PanCancer IO 360 panel (Nanostring) from 100 ng RNA/tumor. Data were analyzed using the nSolver Analysis Software with advanced analysis probe set ns_mm_io_360 v1.0 (Nanostring).

MC38 tumor [6] = test: MC38 tumor model in mice (BCY13272); assay type: in vivo
MC38 tumor [7] = test: efficacy study BCY12491 and Pembrolizumab combination, MC38 tumor growth; assay type: in vivo, huCD137/huPD-1-C57B/6J mice
Description: For tumor growth analysis, 6-8 week old female huCD137/huPD-1-C57B/6J mice (Biocytogen) mice were implanted subcutaneously with 1×10^6 MC38 cells. Mice were randomized into treatment groups when average tumor volumes reached around 92 mm^3 and were treated intravenously with vehicle (25 mM histidine, 10% sucrose, pH7), 5 mg/kg BCY12491 (0, 24 h) or intraperitoneally with 3 mg/kg anti-PD-1 antibody Pembrolizumab or a combination of BCY12491 and Pembrolizumab. Combination treatments were given with three different dosing schedules: BCY12491 and Pembrolizumab treatment initiating at the same time on day 0, BCY12491 treatment initiating on […] and Pembrolizumab treatment initiating on day 5, or Pembrolizumab treatment initiating of day 0 and BCY12491 treatment initiating on day 5. Treatments were given weekly for four doses and tumor growth was monitored by caliper measurements.

MC38 tumor tissue [8] = test: transcriptional (Nanostring) analysis of MC38 tumors, profiling study with BCY12491; assay type: in vivo, huCD137-C57B/6J mice; conditions: Q3D for three doses, Day 6, vs vehicle, 15 mg/kg i.v. peptides, 2 mg/kg i.p. antibody
Description: (§1) For the transcriptional and immunohistochemical (IHC) analyses, 6-8 week old female huCD137-C57B/6J mice (Biocytogen) mice were implanted subcutaneously with 1×10^6 MC38 cells. Mice were randomized into treatment groups when average tumor volumes reached around 240 mm^3 and were treated intravenously with vehicle (25 mM histidine, 10% sucrose, pH7), 15 mg/kg BCY12491, 15 mg/kg BCY13626 (non-binding control) or intraperitoneally with 2 mg/kg anti-CD137 antibody urelumab. Treatments were given Q3D for three doses, tumor growth was monitored by caliper measurements and tumor tissues were harvested 1 hour after the last dose on Day 6. Part of the tumor tissue was used for RNA isolation for transcriptional analysis and a part of the tumor tissue was used for formalin-fixed paraffin embedded (FFPE) sample preparation for IHC analysis. RNA was isolated from tumor tissues using RNAeasy kit (Qiagen) and transcriptional analysis was performed using nCounter Mouse PanCancer IO 360 panel (Nanostring) from 100 ng RNA/tumor. Data were analyzed using the nSolver Analysis Software with advanced analysis probe set ns_mm_io_360_v1.0 (Nanostring). CD8+ tumor infiltrating cells were stained in FFPE tissue sections using anti-mouse CD8 antibody (Abcam, #ab217344) and Ventana Discovery OmniMap anti Rabbit-HRP Kit (Ventana #760 4310).

MC38 tumor tissue [9] = test: IHC analysis for CD8+ cells in MC38 tumor tissue, study with BCY12491; assay type: in vivo, huCD137-C57B/6J mice; conditions: Q3D for three doses, Day 6, vs vehicle or non-binder
Description: as §1

T1 sequence (Q07011 24-255): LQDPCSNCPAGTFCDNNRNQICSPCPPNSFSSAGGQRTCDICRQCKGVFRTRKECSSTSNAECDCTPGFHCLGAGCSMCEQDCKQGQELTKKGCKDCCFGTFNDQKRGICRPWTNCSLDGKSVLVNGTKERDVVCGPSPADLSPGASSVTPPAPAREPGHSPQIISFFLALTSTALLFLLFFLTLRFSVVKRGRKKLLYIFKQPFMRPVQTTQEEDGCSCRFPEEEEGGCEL

CCCC[C@@H]1NC(=O)[C@H](Cc2ccc(O)cc2)NC(=O)[C@@H]2CCCN2C(=O)[C@H](CC(=O)O)NC(=O)[C@H](C)NC(=O)[C@H](Cc2ccccc2)NC(=O)[C@@H]2CSCCC(=O)N3CN(CN(C3)C(=O)CCSC[C@@H](C(=O)N[C@@H](C)C(N)=O)NC1=O)C(=O)CCSC[C@H](NC(C)=O)C(=O)N[C@@H](CC(C)(C)C)C(=O)N1CCC[C@H]1C(=O)N[C@@H](CCC(=O)O)C(=O)N[C@H](CCCCNC(=O)CCc1cn(CCOCCOCCOCCN(CCOCCOCCOCCC(=O)N[C@H]3CSCCC(=O)N4CN5CN(C4)C(=O)CCSC[C@H](NC(=O)[C@@H](CC(=O)O)NC(=O)[C@H](Cc4cccc6ccccc46)NC(=O)[C@@H]4CCCN4C3=O)C(=O)N[C@@H](CCSC)C(=O)N[C@@H](CCCCNC(=N)N)C(=O)N[C@@H](CC(=O)O)C(=O)N[C@@H](Cc3c[nH]c4ccccc34)C(=O)N[C@@H](CO)C(=O)N[C@@H]([C@@H](C)O)C(=O)N3CCC[C@H]3C(=O)N3C[C@H](O)C[C@H]3C(=O)N[C@@H](Cc3c[nH]c4ccccc34)C(=O)N[C@H](C(N)=O)CSCCC5=O)CCOCCOCCOCCn3cc(CCC(=O)NCCCC[C@H]4NC(=O)[C@H](CCC(=O)O)NC(=O)[C@@H]5CCCN5C(=O)[C@H](CC(C)(C)C)NC(=O)[C@@H](NC(C)=O)CSCCC(=O)N5CN6CN(C5)C(=O)CCSC[C@H](NC(=O)[C@H](Cc5ccc(O)cc5)NC(=O)[C@@H]5CCCN5C4=O)C(=O)N[C@@H](Cc4ccccc4)C(=O)N[C@@H](C)C(=O)N[C@@H](CC(=O)O)C(=O)N4CCC[C@H]4C(=O)N[C@@H](Cc4ccc(O)cc4)C(=O)N[C@@H](CCCC)C(=O)N[C@H](C(=O)N[C@@H](C)C(N)=O)CSCCC6=O)nn3)nn1)C(=O)N1CCC[C@H]1C(=O)N[C@@H](Cc1ccc(O)cc1)C(=O)N2 [BT7480]
IL-2 and IFN-γ cytokine secretion (CD137 [1]): robust IL-2 and IFN-γ cytokine secretion | rate of complete responses (CRs) [2]: 0/8 | mRNA for T cell chemotactic chemokines/cytokines such as Ccl1, Ccl17 and Ccl24 [3]: significant early (24 hour timepoint) increase | mRNAs for immune checkpoints (Ctla4, Pdcd1, Cd274, Lag3, Havcr2, Pdcd1lg2, Tigit) ([3]; 5 mg/kg): increase in several immune checkpoint mRNAs; also recorded: trend to increase or significant increase | cytotoxic cell score in tumor tissue ([3]; 144 h vs vehicle at 144 h): significantly increased | Macrophage Cell Score in tumor tissue ([3]; by 48 h vs 24 h vehicle readout): significant increase | CD137 activation (CD137 [4]): strong CD137 activation

I: A[hArg]DC[Hyp]L[X1]PLCLEP[d1Nal]WTC-NH2 / II: Ac-C[tBuAla]PE[dK]PYCFADPY[Nle]CA-NH2 / III: Ac-C[tBuAla]PE[dK]PYCFADPY[Nle]CA-NH2 (linker I:4-I:10-I:17, II:1-II:8-II:15 via TATA; linker I:N-II:5-III:5 via X2; linker III:1-III:8-III:15 via X3) [BT7455]
mRNAs for immune checkpoints (Ctla4, Pdcd1, Cd274, Lag3, Havcr2, Pdcd1lg2, Tigit) (MC38 tumor tissue [5]; 8 mg/kg i.v. 0 h, 24 h): increase in several immune checkpoint mRNAs; also recorded: significant increase | mRNA for T cell chemotactic chemokines/cytokines such as Ccl1, Ccl17 and Ccl24 (MC38 tumor tissue [5]; 8 mg/kg i.v., 24-48 hour timepoint): significant early (24-48 hour timepoint) increase | cytotoxic cell score in tumor tissue (MC38 tumor tissue [5]; 8 mg/kg i.v., vs vehicle or anti-PD-1 or anti-CD137 treated mice): significant increase | modulation of gene sets (signature scores) (MC38 tumor tissue [5]; 48 h after treatment initiation, 8 mg/kg BT7455, 10 mg/kg anti-PD-1, 2 mg/kg urelumab analogue): significant early (48 hours) modulation of several gene sets | antitumor effect (MC38 tumor [6]): significant antitumor effect

Pembrolizumab: anti-PD-1 antibody Pembrolizumab
anti-tumor activity compared to vehicle control (MC38 tumor [7]; 5 mg/kg BCY12491 QW (0, 24 h), 3 mg/kg Pembrolizumab QW, combination both from day 0, D18, p<0.0001): significantly affected the tumor growth; also recorded: significant anti-tumor activity | complete responses (MC38 tumor [7]; monotherapy treatment cohorts, 5 mg/kg BCY12491 (0, 24 h) or 3 mg/kg Pembrolizumab weekly): 3/10

anti-CD137 antibody: anti-CD137 antibody urelumab
T cell score in tumor tissue (MC38 tumor tissue [8]): increased significantly | cytotoxic cell score in tumor tissue (MC38 tumor tissue [8]): increased significantly | infiltration of CD8+ cells in tumors (IHC) (MC38 tumor tissue [9]): Some increase of CD8+ cell infiltration

Source: patent US20240325554A1, “METHODS FOR TREATING CANCER” (Bicycle Tx Limited, priority 2021, published 2024)
